Laboratory results as given in US10954269B2, “Anti-inflammatory tripeptides” (Dr. August Wolff Gmbh & Co. KG Arzneimittel, priority 2013, dated 2021).

Columns and labels:
[1] = tested on: primary human T-cells; test: Cytokine secretion on protein level in activated primary human T-cells (13-plex FACS / Luminex, supernatant); type: cell-based; details: for IL-1 cytokine concentration / IL-2 cytokine concentration / IL-4 cytokine concentration / IL-5 cytokine concentration / IL-6 cytokine concentration / IL-9 cytokine concentration / IL-10 cytokine concentration / IL-12p70 cytokine concentration / IL-13 cytokine concentration / IL-17 cytokine concentration / IL-22 cytokine concentration / TNF-α cytokine concentration / INF-α cytokine concentration: substance 10^−9M
Procedure, shortened: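 Primary T-cells from peripheral blood of healthy volunteers, or HaCaT cells, were activated with PMA/Ionomycin or IFN-γ for 48 h and treated with tripeptides. Supernatants were collected 48 h and 72 h after stimulation and cytokines (IL-1, IL-2, IL-6, IL-12p70, IL-17, IFN-γ, TNF-α) were measured by 13-plex FACS.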

[2] = tested on: human keratinocyte cell line (HaCaT); test: Cytokine secretion on protein level in activated human keratinocyte cell line HaCaT (13-plex FACS / Luminex, supernatant); type: cell-based; details: substance 10^−9M
Procedure, shortened: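 Stimulus: PMA/Ionomycin or IFN-γ, 48 h; cells: HaCaT or human peripheral-blood T-cells; tripeptide treatment; readout: supernatant cytokines via 13-plex FACS or Luminex, 48–72 h post-stimulation.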

[3] = tested on: primary murine T-cells; test: Cytokine secretion on protein level in activated primary murine T-cells (13-plex FACS / Luminex, supernatant); type: cell-based, C57BL/6 mice; details: for IL-1 cytokine concentration / IL-2 cytokine concentration / IL-4 cytokine concentration / IL-5 cytokine concentration / IL-6 cytokine concentration / IL-10 cytokine concentration / IL-13 cytokine concentration / IL-17 cytokine concentration / IL-21 cytokine concentration / IL-22 cytokine concentration / IL-27 cytokine concentration / TNF-α cytokine concentration / IFN-γ cytokine concentration: substance 10^−9M
Procedure, shortened: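 T-cells from secondary lymphatic organs of naïve C57BL/6 mice, stimulated with PMA/Ionomycin or IFN-γ; supernatant cytokines measured by 13-plex FACS 48 h and 72 h after stimulation. In another run, PMA/Ionomycin-stimulated cells received compounds at 10^−7, 10^−9 and 10^−11 M, with IFN-γ, IL-17 and IL-10 measured by Luminex.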

[4] = primary human T-cells stimulated with IFN-γ
[5] = primary human T-cells stimulated with PBS
[6] = primary human T-cells stimulated with PMA/Ionomycin
[7] = HaCaT stimulated with PMA/Ionomycin
[8] = primary murine T-cells stimulated with IFN-γ
[9] = primary murine T-cells stimulated with PBS
[10] = primary murine T-cells stimulated with PMA/Ionomycin

Substance: N^α,N^α-dimethyl-(L)-Lys-(D)-Pro-N^α-methyl-(L)-Val-OH [Example 5]
- secretion / expression of pro-inflammatory cytokines (supernatant) ([1]; activated primary human T-cells): immunomodulatory effects were seen
- IL-1 cytokine concentration [1, 4]: 0 pg/mL
- IL-2 cytokine concentration [1, 4]: 0 pg/mL
- IL-4 cytokine concentration [1, 4]: 78.18 pg/mL
- IL-5 cytokine concentration [1, 4]: 0 pg/mL
- IL-6 cytokine concentration [1, 4]: 42.52 pg/mL
- IL-9 cytokine concentration [1, 4]: 5.56 pg/mL
- IL-10 cytokine concentration [1, 4]: 61 pg/mL
- IL-12p70 cytokine concentration [1, 4]: 0 pg/mL
- IL-13 cytokine concentration [1, 4]: 29.25 pg/mL
- IL-17 cytokine concentration [1, 4]: 26.44 pg/mL
- IL-22 cytokine concentration [1, 4]: 0 pg/mL
- TNF-α cytokine concentration [1, 4]: 12.52 pg/mL
- IL-1 cytokine concentration [1, 5]: 0 pg/mL
- IL-2 cytokine concentration [1, 5]: 0 pg/mL
- IL-4 cytokine concentration [1, 5]: 0 pg/mL
- IL-5 cytokine concentration [1, 5]: 0 pg/mL
- IL-6 cytokine concentration [1, 5]: 94.11 pg/mL
- IL-9 cytokine concentration [1, 5]: 6.74 pg/mL
- IL-10 cytokine concentration [1, 5]: 119.04 pg/mL
- IL-12p70 cytokine concentration [1, 5]: 0 pg/mL
- IL-13 cytokine concentration [1, 5]: 35.75 pg/mL
- IL-17 cytokine concentration [1, 5]: 0 pg/mL
- IL-22 cytokine concentration [1, 5]: 0 pg/mL
- INF-α cytokine concentration [1, 5]: 0 pg/mL
- TNF-α cytokine concentration [1, 5]: 0 pg/mL
- IL-1 cytokine concentration [1, 6]: 748 pg/mL
- IL-2 cytokine concentration [1, 6]: 4369.09 pg/mL
- IL-4 cytokine concentration [1, 6]: 92.43 pg/mL
- IL-5 cytokine concentration [1, 6]: 392.66 pg/mL
- IL-6 cytokine concentration [1, 6]: 1051.51 pg/mL
- IL-9 cytokine concentration [1, 6]: 193.58 pg/mL
- IL-10 cytokine concentration [1, 6]: 789.38 pg/mL
- IL-12p70 cytokine concentration [1, 6]: 0 pg/mL
- IL-13 cytokine concentration [1, 6]: 912.49 pg/mL
- IL-17 cytokine concentration [1, 6]: 1164.75 pg/mL
- IL-22 cytokine concentration [1, 6]: 0 pg/mL
- INF-α cytokine concentration [1, 6]: 8770.62 pg/mL
- TNF-α cytokine concentration [1, 6]: 2187.46 pg/mL
- IL-1 cytokine concentration ([2]; HaCaT stimulated with IFN-γ): 0 pg/mL
- IL-2 cytokine concentration ([2]; HaCaT stimulated with IFN-γ): 0 pg/mL
- IL-4 cytokine concentration ([2]; HaCaT stimulated with IFN-γ): 0 pg/mL
- IL-5 cytokine concentration ([2]; HaCaT stimulated with IFN-γ): 0 pg/mL
- IL-6 cytokine concentration ([2]; HaCaT stimulated with IFN-γ): 415.82 pg/mL
- IL-9 cytokine concentration ([2]; HaCaT stimulated with IFN-γ): 0 pg/mL
- IL-10 cytokine concentration ([2]; HaCaT stimulated with IFN-γ): 41.86 pg/mL
- IL-12p70 cytokine concentration ([2]; HaCaT stimulated with IFN-γ): 0 pg/mL
- IL-13 cytokine concentration ([2]; HaCaT stimulated with IFN-γ): 1974.31 pg/mL
- IL-17 cytokine concentration ([2]; HaCaT stimulated with IFN-γ): 0 pg/mL
- IL-22 cytokine concentration ([2]; HaCaT stimulated with IFN-γ): 0 pg/mL
- TNF-α cytokine concentration ([2]; HaCaT stimulated with IFN-γ): 0 pg/mL
- IFN-γ cytokine concentration ([2]; HaCaT stimulated with PBS): 0 pg/mL
- IL-1 cytokine concentration ([2]; HaCaT stimulated with PBS): 0 pg/mL
- IL-2 cytokine concentration ([2]; HaCaT stimulated with PBS): 149.51 pg/mL
- IL-4 cytokine concentration ([2]; HaCaT stimulated with PBS): 152.8 pg/mL
- IL-5 cytokine concentration ([2]; HaCaT stimulated with PBS): 133.49 pg/mL
- IL-6 cytokine concentration ([2]; HaCaT stimulated with PBS): 218.63 pg/mL
- IL-9 cytokine concentration ([2]; HaCaT stimulated with PBS): 28.51 pg/mL
- IL-10 cytokine concentration ([2]; HaCaT stimulated with PBS): 89.86 pg/mL
- IL-12p70 cytokine concentration ([2]; HaCaT stimulated with PBS): 0 pg/mL
- IL-13 cytokine concentration ([2]; HaCaT stimulated with PBS): 0 pg/mL
- IL-17 cytokine concentration ([2]; HaCaT stimulated with PBS): 18.83 pg/mL
- IL-22 cytokine concentration ([2]; HaCaT stimulated with PBS): 0 pg/mL
- TNF-α cytokine concentration ([2]; HaCaT stimulated with PBS): 0 pg/mL
- IFN-γ cytokine concentration [2, 7]: 199.65 pg/mL
- IL-1 cytokine concentration [2, 7]: 104.98 pg/mL
- IL-2 cytokine concentration [2, 7]: 145.65 pg/mL
- IL-4 cytokine concentration [2, 7]: 168.7 pg/mL
- IL-5 cytokine concentration [2, 7]: 1.93 pg/mL
- IL-6 cytokine concentration [2, 7]: 379.04 pg/mL
- IL-9 cytokine concentration [2, 7]: 0 pg/mL
- IL-10 cytokine concentration [2, 7]: 59.49 pg/mL
- IL-12p70 cytokine concentration [2, 7]: 0 pg/mL
- IL-13 cytokine concentration [2, 7]: 0 pg/mL
- IL-17 cytokine concentration [2, 7]: 95.44 pg/mL
- IL-22 cytokine concentration [2, 7]: 0 pg/mL
- TNF-α cytokine concentration [2, 7]: 27.45 pg/mL
- secretion / expression of pro-inflammatory cytokines (supernatant) ([3]; activated primary murine T-cells): immunomodulatory effects were seen
- IL-1 cytokine concentration [3, 8]: 49.65 pg/mL
- IL-2 cytokine concentration [3, 8]: 89.76 pg/mL
- IL-4 cytokine concentration [3, 8]: 47.55 pg/mL
- IL-5 cytokine concentration [3, 8]: 263.27 pg/mL
- IL-6 cytokine concentration [3, 8]: 127.92 pg/mL
- IL-10 cytokine concentration [3, 8]: 1359.92 pg/mL
- IL-13 cytokine concentration [3, 8]: 0 pg/mL
- IL-17 cytokine concentration [3, 8]: 97.22 pg/mL
- IL-21 cytokine concentration [3, 8]: 0 pg/mL
- IL-22 cytokine concentration [3, 8]: 32.03 pg/mL
- IL-27 cytokine concentration [3, 8]: 20.07 pg/mL
- TNF-α cytokine concentration [3, 8]: 24.23 pg/mL
- IFN-γ cytokine concentration [3, 9]: 232.8 pg/mL
- IL-1 cytokine concentration [3, 9]: 56.42 pg/mL
- IL-2 cytokine concentration [3, 9]: 151.25 pg/mL
- IL-4 cytokine concentration [3, 9]: 53.6 pg/mL
- IL-5 cytokine concentration [3, 9]: 209.32 pg/mL
- IL-6 cytokine concentration [3, 9]: 117.95 pg/mL
- IL-10 cytokine concentration [3, 9]: 1311.94 pg/mL
- IL-13 cytokine concentration [3, 9]: 0 pg/mL
- IL-17 cytokine concentration [3, 9]: 0 pg/mL
- IL-21 cytokine concentration [3, 9]: 13.71 pg/mL
- IL-22 cytokine concentration [3, 9]: 27.66 pg/mL
- IL-27 cytokine concentration [3, 9]: 81.64 pg/mL
- TNF-α cytokine concentration [3, 9]: 32.89 pg/mL
- IFN-γ cytokine concentration [3, 10]: 2075.42 pg/mL
- IL-1 cytokine concentration [3, 10]: 178.79 pg/mL
- IL-2 cytokine concentration [3, 10]: 112.62 pg/mL
- IL-4 cytokine concentration [3, 10]: 81.4 pg/mL
- IL-5 cytokine concentration [3, 10]: 246.42 pg/mL
- IL-6 cytokine concentration [3, 10]: 189.2 pg/mL
- IL-10 cytokine concentration [3, 10]: 1233.45 pg/mL
- IL-13 cytokine concentration [3, 10]: 0 pg/mL
- IL-17 cytokine concentration [3, 10]: 0 pg/mL
- IL-21 cytokine concentration [3, 10]: 67.28 pg/mL
- IL-22 cytokine concentration [3, 10]: 29.38 pg/mL
- IL-27 cytokine concentration [3, 10]: 51.58 pg/mL
- TNF-α cytokine concentration [3, 10]: 29.15 pg/mL
